These compounds were tested on M. tuberculosis (assay: Extracellular activity against M. tuberculosis in cholesterol media (Alamar Blue reduction assay)). Settings: Mycobacterium tuberculosis, 240 h, 7H12-Cholesterol media, 10 days; read-out: Cholesterol broth: alamar blue--EC50.
Assay type: cell-based, Mycobacterium tuberculosis
In the case of `Cc1nocc1CC(=O)N1CCC(n2nnc(C3CCCCC3)n2)CC1` [Compound 56, 1-(4-(5-cyclohexyl-2H-tetrazol-2-yl)piperidin-1-yl)-2-(3-methylisoxazol-4-yl)ethan-1-one], the EC50 is reported as > 25 µM.
With `Cc1nonc1CC(=O)N1CCC(c2nnc(-c3ccc(F)cc3)o2)CC1` [Compound 129, 1-(4-(5-(4-fluorophenyl)-1,3,4-oxadiazol-2-yl)piperidin-1-yl)-2-(4-methyl-1,2,5-oxadiazol-3-yl)ethan-1-one] the EC50 was > 10 µM.
`Cc1nonc1CC(=O)N1CCC(c2noc(-c3ccc(F)cc3)n2)CC1` [Compound 132, 1-(4-(5-(4-fluorophenyl)-1,2,4-oxadiazol-3-yl)piperidin-1-yl)-2-(4-methyl-1,2,5-oxadiazol-3-yl)ethan-1-one] was tested, and the EC50 was 1.07 µM.
In the case of `Cc1nonc1CS(=O)(=O)N1CCC(c2nc(-c3ccc(F)cc3)no2)CC1` [Compound 151, 3-(4-fluorophenyl)-5-(1-(((4-methyl-1,2,5-oxadiazol-3-yl)methyl)sulfonyl)piperidin-4-yl)-1,2,4-oxadiazole], the EC50 is reported as > 10 µM.
In the case of `Cc1noc(CC(=O)N2CCC3(CC2)CC(c2nc(-c4ccc(Cl)c(Cl)c4)no2)C3)n1` [Compound 226, 1-(2-(3-(3,4-dichlorophenyl)-1,2,4-oxadiazol-5-yl)-7-azaspiro[3.5]nonan-7-yl)-2-(3-methyl-1,2,4-oxadiazol-5-yl)ethan-1-one], the EC50 is reported as 0.109 µM.
With `Cc1nonc1CC(=O)N1CCC(n2ccc(-c3ccc(F)cc3)n2)CC1` [Compound 127, 1-(4-(3-(4-fluorophenyl)-1H-pyrazol-1-yl)piperidin-1-yl)-2-(4-methyl-1,2,5-oxadiazol-3-yl)ethan-1-one] the EC50 was 2.97 µM.
For `Cc1nonc1CC(=O)N1CCC2(CC1)CC(n1nnc(-c3ccc(F)cc3)n1)C2` [Compound 247, 1-(2-(5-(4-fluorophenyl)-2H-tetrazol-2-yl)-7-azaspiro[3.5]nonan-7-yl)-2-(4-methyl-1,2,5-oxadiazol-3-yl)ethan-1-one], the EC50 was 1.25 µM.
`Cc1nocc1CC(=O)N1CCC(c2nc(C3CCCCC3)no2)CC1` [Compound 55, 1-(4-(3-cyclohexyl-1,2,4-oxadiazol-5-yl)piperidin-1-yl)-2-(3-methylisoxazol-4-yl)ethan-1-one] was tested, and the EC50 was > 25 µM.
`Cc1nonc1CC(=O)N1CCC(O)(c2nc(-c3ccc(F)cc3)no2)CC1` [Compound 140, 1-(4-(3-(4-fluorophenyl)-1,2,4-oxadiazol-5-yl)-4-hydroxypiperidin-1-yl)-2-(4-methyl-1,2,5-oxadiazol-3-yl)ethan-1-one] showed an EC50 of 0.685 µM.
For `Cn1ncnc1CC(=O)N1CCC(c2nc(-c3ccc(Cl)cc3F)no2)CC1` [Compound 178, 1-(4-(3-(4-chloro-2-fluorophenyl)-1,2,4-oxadiazol-5-yl)piperidin-1-yl)-2-(1-methyl-1H-1,2,4-triazol-5-yl)ethan-1-one], the EC50 was 0.2 µM.
For `Cc1nonc1CC(=O)N1CCC(c2nc([C@@H]3CC[C@H](F)C3)no2)CC1` [Compound 113, 1-(4-(3-((1R,3S)-3-fluorocyclopentyl)-1,2,4-oxadiazol-5-yl)piperidin-1-yl)-2-(4-methyl-1,2,5-oxadiazol-3-yl)ethan-1-one], the EC50 was > 25 µM.
With `Cc1nonc1CC(=O)N1CCC(c2nc(C(C)C)no2)CC1` [Compound 83, 1-(4-(3-isopropyl-1,2,4-oxadiazol-5-yl)piperidin-1-yl)-2-(4-methyl-1,2,5-oxadiazol-3-yl)ethan-1-one] the EC50 was > 10 µM.
With `Cc1nonc1CC(=O)N1CCC(n2nnc(C3CCCCC3)n2)CC1` [Compound 74, 1-(4-(5-cyclohexyl-2H-tetrazol-2-yl)piperidin-1-yl)-2-(4-methyl-1,2,5-oxadiazol-3-yl)ethan-1-one] the EC50 was 2.07 µM.
In the case of `Cc1nnn(C2CCN(C(=O)Cc3nonc3C)CC2)n1` [Compound 81, 2-(4-methyl-1,2,5-oxadiazol-3-yl)-1-(4-(5-methyl-2H-tetrazol-2-yl)piperidin-1-yl)ethan-1-one], the EC50 is reported as > 10 µM.
`Cn1ncnc1CC(=O)N1CCC(c2noc(C34CC(C)(C3)C4)n2)CC1` [Compound 161, 2-(1-methyl-1H-1,2,4-triazol-5-yl)-1-(4-(5-(3-methylbicyclo[1.1.1]pentan-1-yl)-1,2,4-oxadiazol-3-yl)piperidin-1-yl)ethan-1-one] was tested, and the EC50 was > 10 µM.
With `Cc1nonc1CC(=O)N1CCC(c2nc(-c3ccc(C(F)(F)F)c(F)c3)no2)CC1` [Compound 117] the EC50 was 0.278 µM.
`Cc1noc(CC(=O)N2CCN(c3nc(-c4ccc(Cl)c(Cl)c4)no3)CC2)n1` [Compound 234, 1-(4-(3-(3,4-dichlorophenyl)-1,2,4-oxadiazol-5-yl)piperazin-1-yl)-2-(3-methyl-1,2,4-oxadiazol-5-yl)ethan-1-one] was tested, and the EC50 was > 10 µM.
In the case of `Cn1ncnc1CC(=O)N1CC2CC(C1)C2c1nc(-c2ccc(Cl)c(Cl)c2)no1` (stereo not drawn) [Compound 216, 1-(6-(3-(3,4-dichlorophenyl)-1,2,4-oxadiazol-5-yl)-3-azabicyclo[3.1.1]heptan-3-yl)-2-(1-methyl-1H-1,2,4-triazol-5-yl)ethan-1-one], the EC50 is reported as > 10 µM.
`Cc1noc(CC(=O)N2CCC(c3nc(-c4ccc(F)c(F)c4)no3)CC2)n1` [Compound 47, 1-(4-(3-(3,4-difluorophenyl)-1,2,4-oxadiazol-5-yl)piperidin-1-yl)-2-(3-methyl-1,2,4-oxadiazol-5-yl)ethan-1-one] was tested, and the EC50 was 1.45 µM.
For `Cc1nonc1CC(=O)N1CC2CC1CC2c1nc(C2CCC(F)(F)CC2)no1` (stereo not drawn) [Compound 196, 1-(5-(3-(4,4-difluorocyclohexyl)-1,2,4-oxadiazol-5-yl)-2-azabicyclo[2.2.1]heptan-2-yl)-2-(4-methyl-1,2,5-oxadiazol-3-yl)ethan-1-one], the EC50 was 1.25 µM.
With `Cc1nonc1CC(=O)N1CCCC(n2cc(C(=O)NCCO)nn2)C1` (stereo not drawn) [Compound 246, N-(2-hydroxyethyl)-1-(1-(2-(4-methyl-1,2,5-oxadiazol-3-yl)acetyl)piperidin-3-yl)-1H-1,2,3-triazole-4-carboxamide] the EC50 was > 10 µM.
For `Cc1noc(CC(=O)N2CCC(c3nc(C4(C)CCCCC4)no3)CC2)n1` [Compound 27, 2-(3-methyl-1,2,4-oxadiazol-5-yl)-1-(4-(3-(1-methylcyclohexyl)-1,2,4-oxadiazol-5-yl)piperidin-1-yl)ethan-1-one], the EC50 was > 25 µM.
`Cc1nonc1CC(=O)N1CCC(c2nc(C3CCCC(C)(C)C3)no2)CC1` (stereo not drawn) [Compound 89, 1-(4-(3-(3,3-dimethylcyclohexyl)-1,2,4-oxadiazol-5-yl)piperidin-1-yl)-2-(4-methyl-1,2,5-oxadiazol-3-yl)ethan-1-one] showed an EC50 of 0.512 µM.
Work on `Cc1nonc1CC(=O)N1CCC(c2nc(Cc3ccc(F)cc3)no2)CC1` [Compound 142, 1-(4-(3-(4-fluorobenzyl)-1,2,4-oxadiazol-5-yl)piperidin-1-yl)-2-(4-methyl-1,2,5-oxadiazol-3-yl)ethan-1-one] yielded an EC50 of 6.64 µM.
For `Cn1cnc(CC(=O)N2CCC(c3nc(-c4ccc(Cl)c(Cl)c4)no3)CC2)n1` [Compound 153, 1-(4-(3-(3,4-dichlorophenyl)-1,2,4-oxadiazol-5-yl)piperidin-1-yl)-2-(1-methyl-1H-1,2,4-triazol-3-yl)ethan-1-one], the EC50 was > 10 µM.
In the case of `Cc1nonc1CC(=O)N1CC2CCC(C1)C2c1nc(-c2ccc(F)cc2)no1` (stereo not drawn) [Compound 249, 1-(8-(3-(4-fluorophenyl)-1,2,4-oxadiazol-5-yl)-3-azabicyclo[3.2.1]octan-3-yl)-2-(4-methyl-1,2,5-oxadiazol-3-yl)ethan-1-one], the EC50 is reported as 1.29 µM.
For `Cc1noc(CC(=O)N2CC3CC(C2)C3c2nc(C3CCC(F)(F)CC3)no2)n1` (stereo not drawn) [Compound 207, 1-(6-(3-(4,4-difluorocyclohexyl)-1,2,4-oxadiazol-5-yl)-3-azabicyclo[3.1.1]heptan-3-yl)-2-(3-methyl-1,2,4-oxadiazol-5-yl)ethan-1-one], the EC50 was > 10 µM.
With `Cc1nonc1CC(=O)N1CCC(n2cc(-c3ccc(F)cc3)nn2)CC1` [Compound 128, 1-(4-(4-(4-fluorophenyl)-1H-1,2,3-triazol-1-yl)piperidin-1-yl)-2-(4-methyl-1,2,5-oxadiazol-3-yl)ethan-1-one] the EC50 was > 10 µM.
`Cc1nonc1NC(=O)N1CCC(c2nc(-c3ccc(F)cc3)no2)CC1` [Compound 152, 4-(3-(4-fluorophenyl)-1,2,4-oxadiazol-5-yl)-N-(4-methyl-1,2,5-oxadiazol-3-yl)piperidine-1-carboxamide] gave an EC50 of 0.653 µM.
With `Cc1noc(CC(=O)N2CCC(O)(c3nc(C4CCCCC4)no3)CC2)n1` [Compound 25, 1-(4-(3-cyclohexyl-1,2,4-oxadiazol-5-yl)-4-hydroxypiperidin-1-yl)-2-(3-methyl-1,2,4-oxadiazol-5-yl)ethan-1-one] the EC50 was > 10 µM.
Compound `Cc1nocc1CC(=O)N1CCC(c2nc(-c3ccc(F)cc3)no2)CC1` [Compound 58, 1-(4-(3-(4-fluorophenyl)-1,2,4-oxadiazol-5-yl)piperidin-1-yl)-2-(3-methylisoxazol-4-yl)ethan-1-one] has an EC50 of 2.15 µM.
In the case of `Cc1nccnc1CC(=O)N1CCC(c2nc(-c3ccc(F)cc3)no2)CC1` [Compound 15, 1-(4-(3-(4-fluorophenyl)-1,2,4-oxadiazol-5-yl)piperidin-1-yl)-2-(3-methylpyrazin-2-yl)ethan-1-one], the EC50 is reported as 1.22 µM.
Work on `Cc1nonc1CC(=O)N1CC2CC(C1)C2c1nc(-c2ccc(F)cc2)no1` (stereo not drawn) [Compound 215, 1-(6-(3-(4-fluorophenyl)-1,2,4-oxadiazol-5-yl)-3-azabicyclo[3.1.1]heptan-3-yl)-2-(4-methyl-1,2,5-oxadiazol-3-yl)ethan-1-one] yielded an EC50 of 0.132 µM.
For `Cc1nonc1CC(=O)N1CCC2(CC1)CC(c1nc(C3CCCCC3)no1)C2` [Compound 229, 1-(2-(3-cyclohexyl-1,2,4-oxadiazol-5-yl)-7-azaspiro[3.5]nonan-7-yl)-2-(4-methyl-1,2,5-oxadiazol-3-yl)ethan-1-one], the EC50 was 3.06 µM.
Compound `Cc1nonc1CC(=O)N1CC2CC1CC2c1nc(C2CCCCC2)no1` (stereo not drawn) [Compound 194, 1-(5-(3-cyclohexyl-1,2,4-oxadiazol-5-yl)-2-azabicyclo[2.2.1]heptan-2-yl)-2-(4-methyl-1,2,5-oxadiazol-3-yl)ethan-1-one] has an EC50 of 0.79 µM.
`Cn1ncnc1CC(=O)N1CC2CC1CC2c1nc(-c2ccc(Cl)c(F)c2)no1` (stereo not drawn) [Compound 201, 1-(5-(3-(4-chloro-3-fluorophenyl)-1,2,4-oxadiazol-5-yl)-2-azabicyclo[2.2.1]heptan-2-yl)-2-(1-methyl-1H-1,2,4-triazol-5-yl)ethan-1-one] showed an EC50 of 0.2 µM.
